≈ marks a conversion by molar mass, not a printed value. Structures can show the parent of a compound that is named as a salt. Where two headings read alike, the source gives them in different places. Each block holds one compound with its values, some of them ahead of it.
Experiments:
[1] = system: A549 human lung carcinoma epithelial cells; assay: SRB cytotoxicity assay, A549 cells; conditions: SRB assay, 72 h, highest concentration tested 100 µg/ml
Description: After incubation, cells were fixed with trichloroacetic acid (Cat. No. T4885, Sigma-Aldrich, USA), stained with SRB (Cat. No. S9012, Sigma-Aldrich, USA), and the absorbance was measured at 515 nm. Percent cell death was calculated using the following equation: % Cell death=(ODc−OD0)‐(ODs−OD0)/(ODc−OD0)×100
OD0 = Optical density of cells before treatment (baseline reading).
ODC = Optical density of untreated control cells after 72 h.
ODS = Optical density of cells treated with the test sample after 72 h.
Non-linear regression analysis was performed using GraphPad Prism to calculate the IC50 value. This value reflects the concentration needed to inhibit cell growth by 50%.
All data are presented as mean ± standard error of the mean (SEM) and were collected from three separate experiments. Statistical analyses were conducted using Student’s t-test or ANOVA, followed by Tukey’s multiple comparisons test. Significance is indicated by *p < 0.05, **p < 0.01, and ***p < 0.001.

[2] = system: LPS-induced nitric oxide (NO) production in RAW 264.7 cells; assay: Inhibition of NO generation in LPS-induced RAW 264.7 cells (Griess); format: cell-based, murine; conditions: RAW 264.7 cells
Description: The nitrite concentration in the culture medium was measured to indicate nitric oxide (NO) production as previously described (Min et al. [2009]). The murine macrophage RAW 264.7 cell line was obtained from ATCC, Manassas, VA, USA, and maintained in Dulbecco’s modified Eagle’s medium supplemented with 10% heat-inactivated FBS (Cat. No. A5670801, Gibco BRL Co, Grand Island, NY, USA), penicillin G (100 units/mL) (Cat. No. P7794, Sigma-Aldrich, USA), streptomycin (100 µg/mL) (Cat. No. S9137, Sigma-Aldrich, USA), and L-glutamine (2 mM) (Cat. No. 25030081, Gibco BRL Co, Grand Island, NY, USA). In brief, RAW 264.7 cells were seeded at a density of 4 × 10^4 cells/well in phenol red-free media (Cat. No. 11835030, Gibco, USA) in a 96-well plate, and incubated in a humidified incubator with 5% CO2 at 37 °C for 24 hr. […] The concentration of nitric oxide production was assessed using the Griess reagent, which consists of a 1:1 (v/v) mixture of 1% sulfanilamide (Cat No. A13001, Alfa Aesar, Massachusetts, USA) in H3PO4 and N-(1-naphthyl)ethylenediamine dihydrochloride (Cat. No. 102397, MP Biomedicals, USA). Absorbance was recorded with a microplate reader (SynergyMx, BioTeK, Winooski, VT, USA) at 540 nm. A standard curve was created using sodium nitrite (1–100 μM) (Cat. No. 44227, Alfa Aesar, Massachusetts, USA). A sulforhodamine B (SRB) assay was employed to assess the cellular viability of the samples with RAW 264.7 cells under a similar experimental setup. The final % inhibition of NO production was adjusted based on cell viability.

[3] = system: S. aureus CART817; assay: Antibacterial MIC, broth microdilution with resazurin; format: cell-based; conditions: Staphylococcus aureus
Description: (§1) The minimum inhibitory concentrations (MICs) were determined using a two-fold serial dilution method with MHB following the recommendations of the Clinical and Laboratory Standards Institute (CLSI [2012]; Elshikh et al. [2016]). In brief, serial two-fold dilutions of the samples in DMSO were mixed with MHB in a 96-well microplate. Then, 50 µL of bacteria suspension was added to each well, resulting in a final concentration of 1 × 10^4 colony-forming units/well. The plates were incubated at 35–37 °C for 18–24 hr. After incubation, 10 µL of 0.18% resazurin (Cat. No. R7017, Sigma-Aldrich, USA) was added to each well (Elshikh et al. [2016]). The MIC was assessed within 2–3 hr after the addition of resazurin. All antimicrobial assays were performed in triplicate, using vancomycin (Cat. No. SBR00001, Sigma-Aldrich, USA) and gentamicin (Cat. No. G1397, Sigma-Aldrich, USA) as standard controls.

[4] = system: MRSA HBP10; assay: as above; format: cell-based, Staphylococcus aureus
Excerpt: (§2) Methicillin-resistant Staphylococcus aureus (MRSA), methicillin-susceptible S. aureus (MSSA), and Gram-negative clinical isolates of bacteria [Escherichia coli (9637) and Serratia marcescens ATCC 13880] were used for this study. […] MSSA HBP10, MSSA LUU7, MSSA R113, S. aureus ONE9, and MSSA POB2 were isolated in Hawaiʻi (Gerken et al. [2021]). Mueller Hinton Broth (MHB, GTIN:00382902979630, Becton, Dickinson and Company, Franklin Lakes, NJ, USA) and Mueller Hinton Agar (MHA, GTIN:00382902252504, Becton, Dickinson and Company, Franklin Lakes, NJ, USA,) were used for bacterial inoculation. MRSA was a pathogen strain causing hospital-acquired infections in 1982. This strain easily acquires resistance to antibiotics, such as vancomycin. MSSA strains isolated from the Island of Hawaiʻi included: Honolʻii Beach Park (HBP10) carry the genes erm(C), aph(3′)-III, and mecA, which provide resistance to macrolide, aminoglycoside, and beta-lactam antibiotics, respectively; Wailuku River (LUU7) which contains the blaZ gene (beta-lactam resistance) (Gerken et al. [2021]). Richardson’s Beach Park (R113) and Onekahakaha (ONE9) which is known for its virulence factors (hlgA, hlgB, hlgC, lukD, and lukE).
as §1

[5] = system: MRSA POB2; assay: as above; format: cell-based, Staphylococcus aureus
Excerpt: as §2, §1

[6] = system: S. aureus NEWMAN; assay: as above; format: cell-based, Staphylococcus aureus; conditions: Staphylococcus aureus
Excerpt: as §2, §1

[7] = system: E. coli; assay: as above; format: cell-based; conditions: Escherichia coli, Gram-negative
Excerpt: as §2, §1

[8] = system: MRSA USA300; assay: as above; format: cell-based; conditions: Staphylococcus aureus
Excerpt: as §2, §1

[9] = system: MSSA LUU7; assay: as above; format: cell-based; conditions: Staphylococcus aureus
Excerpt: as §2, §1

[10] = system: MSSA R113; assay: as above; format: cell-based; conditions: Staphylococcus aureus
Excerpt: as §2, §1

[11] = system: S. aureus 8325-4; assay: as above; format: cell-based; conditions: Staphylococcus aureus, 83254
Excerpt: as §2, §1

[12] = system: S. aureus ONE9; assay: as above; format: cell-based; conditions: Staphylococcus aureus
Excerpt: as §2, §1

[13] = system: S. marcescent; assay: as above; format: cell-based, Serratia marcescens; conditions: Gram-negative
Excerpt: as §2, §1

[14] = Ferric-reducing antioxidant power (FRAP) assay
Description: The FRAP assay was used to evaluate antioxidant activity based on the ability of the sample to reduce Fe^3+-TPTZ (2,4,6-tris(2-pyridyl)-S-triazine) to Fe^2+-TPTZ (Benzie and Strain [1996]). This reduction results in a color change from colorless to blue. The absorbance was measured at 593 nm using a Microplate Reader (BioTek ELx800 Instruments Inc. Winooski, Vermont, USA) with the Gen 5 software for FRAP value calculations. A ferrous sulfate heptahydrate (FeSO4 · 7H2O) (Cat. No. 215422, Sigma-Aldrich, USA) standard curve, ranging from 1000 µM to 50 µM, was prepared for the assay. The FRAP reagent consists of 300 mM sodium acetate buffer (pH 3.6) (Cat. No. 90358, Sigma-Aldrich, USA), 10 mM TPTZ solution (Cat. No. T1253, Sigma-Aldrich, USA), and 20 mM ferric (III) chloride hexahydrate (FeCl3 · 6H2O) (Cat. No. 236489, Sigma-Aldrich, USA) in a 10:1:1 ratio, respectively, and heated to 37 °C for ten minutes before use. A blank was measured at 593 nm with 150 µL FRAP reagent added to each well of a 96-well microtiter plate. Samples (20 µL of each sample) (1, 0.5, 0.25 mg/mL) and ascorbic acid (Sigma-Aldrich, Cat. No. A4403) positive control (1 mg/mL) were added in triplicates. Reducing capacity was expressed by FRAP values in an µM FeSO4/µg sample unit.

- MIC ([3]; S. aureus CART817, Gram-positive, read-out: MIC): 128 µg/mL (≈ 1150 µM)
- MIC ([4]; Staphylococcus aureus, MRSA HBP10, Gram-positive, read-out: MIC): 128 µg/mL (≈ 1150 µM)
- MIC ([5]; Staphylococcus aureus, MRSA POB2, Gram-positive, read-out: MIC): 128 µg/mL (≈ 1150 µM)
- MIC ([6]; S. aureus NEWMAN, Gram-positive, read-out: MIC): 128 µg/mL (≈ 1150 µM)
- MIC [7]: 128 µg/mL (≈ 1150 µM)
- MIC ([8]; MRSA USA300, Gram-positive, read-out: MIC): 128 µg/mL (≈ 1150 µM)
- MIC ([9]; MSSA LUU7, Gram-positive, read-out: MIC): 128 µg/mL (≈ 1150 µM)
- MIC ([10]; MSSA R113, Gram-positive, read-out: MIC): 128 µg/mL (≈ 1150 µM)
- MIC ([11]; S. aureus 8325-4, Gram-positive, read-out: MIC): 128 µg/mL (≈ 1150 µM)
- MIC ([12]; S. aureus ONE9, Gram-positive, read-out: MIC): 128 µg/mL (≈ 1150 µM)
- MIC ([13]; Serratia marcescens, read-out: MIC): 128 µg/mL (≈ 1150 µM)
Structure (SMILES): Nc1cc[nH]c(=O)n1 [Compound 3, cytosine]
- cytotoxic response against A549 cells (in words) [1]: no cytotoxic response
- NO inhibitory activity (in words) ([2]; LPS-induced, highest concentration 50 μg/mL): no significant NO inhibitory activity

- MIC ([4]; MRSA HBP10, Gram-positive): Inactive
- MIC ([5]; MRSA POB2, Gram-positive): Inactive
- MIC [13]: Inactive
Structure (SMILES): CCCCCCCCC1CC1CCCCCCCC(=O)O (stereo not shown) [Compound 7, dihydrosterculic acid]
- FRAP ([14]; FeSO4 standard curve): 230.06 µM
- FRAP ([14]; µM FeSO4/µg sample): 2.88 ± 0.03 µM/µg

- MIC ([4]; MRSA HBP10, Gram-positive): Inactive
- MIC ([5]; MRSA POB2, Gram-positive): Inactive
- MIC [13]: Inactive
Structure (SMILES): CCCCCCCC/C=C/CCCCCCC(O)C(=O)OC (stereo not shown) [Compound 8, methyl (9E)-2-hydroxy-9-octadecenoate]

The next lines start with the compound.

Structure (SMILES): [H]/N=C(/NC)NCCC[C@H](N)C(=O)O [L-NMMA, L-N-Monomethyl Arginine citrate, reference compound]
- IC50 ([2]; Mus musculus, RAW264.7, LPS 1 μg/mL, adjusted for cell viability, read-out: IC50, inhibition of LPS-induced NO production): 43.5 ± 1.8 µM

Structure (SMILES): O=C1O[C@H]([C@@H](O)CO)C(O)=C1O [Ascorbic acid, ascorbic acid, reference compound]
- FRAP ([14]; FeSO4 standard curve): 2847.40 µM
- FRAP ([14]; µM FeSO4/µg sample): 35.59 ± 0.09 µM/µg
- FRAP ([14]; µM FeSO4/µg sample, listed as ascorbic acid): 35.59 µM/µg

Structure (SMILES): CN[C@H](CC(C)C)C(=O)N[C@H]1C(=O)N[C@@H](CC(N)=O)C(=O)N[C@H]2C(=O)N[C@H]3C(=O)N[C@H](C(=O)N[C@H](C(=O)O)c4cc(O)cc(O)c4-c4cc3ccc4O)[C@H](O)c3ccc(c(Cl)c3)Oc3cc2cc(c3O[C@@H]2O[C@H](CO)[C@@H](O)[C@H](O)[C@H]2O[C@H]2C[C@](C)(N)[C@H](O)[C@H](C)O2)Oc2ccc(cc2Cl)[C@H]1O [Vancomycin, vancomycin, reference compound]
- MIC ([3]; CART817): 1 µg/mL (≈ 0.69 µM)
- MIC ([4]; Staphylococcus aureus, MRSA): 1 µg/mL (≈ 0.69 µM)
- MIC ([5]; Staphylococcus aureus, MRSA): 0.5 µg/mL (≈ 0.345 µM)
- MIC ([6]; NEWMAN): 0.5 µg/mL (≈ 0.345 µM)
- MIC [8]: 0.5 µg/mL (≈ 0.345 µM)
- MIC ([9]; MSSA): 0.5 µg/mL (≈ 0.345 µM)
- MIC ([10]; MSSA): 0.5 µg/mL (≈ 0.345 µM)
- MIC [11]: 0.5 µg/mL (≈ 0.345 µM)
- MIC ([12]; ONE9): 0.5 µg/mL (≈ 0.345 µM)
